System: 926638-142-R-J1-PDC complex spheroid viability
Experiment: Anticancer human tumor 926638-142-R-J1-PDC patient-derived endometrial carcinoma cell line growth inhibition [POLQ]
Conditions: for IC50: curve of first compound; for viability, T/C: stronger effect = lower value
In short: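 Patient-derived tumour cells were co-cultured with HUVEC and mesenchymal stem cells as multicellular spheroids at 37 °C. They were treated with POLQ inhibitors (novobiocin, ART-558, RP6685) alone or combined with other agents. Top concentrations were at or near clinical Cmax (otherwise 10 microM; SN-38 at 1 microM), decreasing in half-log steps.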

[1] = second compound 0.0316 µM, first compound 0.0316 µM
[2] = second compound 0.0316 µM, first compound 0.1 µM
[3] = second compound 0.0316 µM, first compound 0.316 µM
[4] = second compound 0.0316 µM, first compound 1 µM
[5] = second compound 0.0316 µM, first compound 3.16 µM
[6] = second compound 0.0316 µM, first compound 10 µM
[7] = second compound 0.1 µM, first compound 0.0316 µM
[8] = second compound 0.1 µM, first compound 0.1 µM
[9] = second compound 0.1 µM, first compound 0.316 µM
[10] = second compound 0.1 µM, first compound 1 µM
[11] = second compound 0.1 µM, first compound 3.16 µM
[12] = second compound 0.1 µM, first compound 10 µM
[13] = second compound 0.316 µM, first compound 0.0316 µM
[14] = second compound 0.316 µM, first compound 0.1 µM
[15] = second compound 0.316 µM, first compound 0.316 µM
[16] = second compound 0.316 µM, first compound 1 µM
[17] = second compound 0.316 µM, first compound 3.16 µM
[18] = second compound 0.316 µM, first compound 10 µM
[19] = second compound 1 µM, first compound 0.0316 µM
[20] = second compound 1 µM, first compound 0.1 µM
[21] = second compound 1 µM, first compound 0.316 µM
[22] = second compound 1 µM, first compound 1 µM
[23] = second compound 1 µM, first compound 3.16 µM
[24] = second compound 1 µM, first compound 10 µM
[25] = second compound 3.16 µM, first compound 0.0316 µM
[26] = second compound 3.16 µM, first compound 0.1 µM
[27] = second compound 3.16 µM, first compound 0.316 µM
[28] = second compound 3.16 µM, first compound 1 µM
[29] = second compound 3.16 µM, first compound 3.16 µM
[30] = second compound 3.16 µM, first compound 10 µM
[31] = second compound 10 µM, first compound 0.0316 µM
[32] = second compound 10 µM, first compound 0.1 µM
[33] = second compound 10 µM, first compound 0.316 µM
[34] = second compound 10 µM, first compound 1 µM
[35] = second compound 10 µM, first compound 3.16 µM
[36] = second compound 10 µM, first compound 10 µM
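Further: spheroids exposed to drugs for one week before readout.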
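Wherever viability, T/C is given: percent viability relative to DMSO vehicle control wells set as 100%.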

C=CC(=O)N1CCN(c2nc(=O)n(-c3c(C)ccnc3C(C)C)c3nc(-c4c(O)cccc4F)c(F)cc23)C(C)C1 (stereo not given) + COC1C(OC(N)=O)C(O)C(Oc2ccc3c(O)c(NC(=O)c4ccc(O)c(CC=C(C)C)c4)c(=O)oc3c2C)OC1(C)C
IC50 (second compound 0.0316 µM): > 10 µM
IC50 (second compound 0.1 µM): > 10 µM
IC50 (second compound 0.316 µM): > 10 µM
IC50 (second compound 1 µM): > 10 µM
IC50 (second compound 3.16 µM): > 10 µM
IC50 (second compound 10 µM): 8.27 µM
viability, T/C [1]: 83.3%
viability, T/C [2]: 95.4%
viability, T/C [3]: 76.5%
viability, T/C [4]: 86.8%
viability, T/C [5]: 64.2%
viability, T/C [6]: 52.5%
viability, T/C [7]: 92.6%
viability, T/C [8]: 91.6%
viability, T/C [9]: 85.1%
viability, T/C [10]: 80.8%
viability, T/C [11]: 80.1%
viability, T/C [12]: 65.6%
viability, T/C [13]: 101%
viability, T/C [14]: 96.2%
viability, T/C [15]: 87.3%
viability, T/C [16]: 85.8%
viability, T/C [17]: 68.5%
viability, T/C [18]: 53.6%
viability, T/C [19]: 81.3%
viability, T/C [20]: 87.9%
viability, T/C [21]: 77.1%
viability, T/C [22]: 80.9%
viability, T/C [23]: 77.2%
viability, T/C [24]: 59.4%
viability, T/C [25]: 74.1%
viability, T/C [26]: 87.7%
viability, T/C [27]: 77.4%
viability, T/C [28]: 75.7%
viability, T/C [29]: 74.5%
viability, T/C [30]: 56.5%
viability, T/C [31]: 77.4%
viability, T/C [32]: 96%
viability, T/C [33]: 103%
viability, T/C [34]: 73.6%
viability, T/C [35]: 76.1%
viability, T/C [36]: 45.1%

CC1COCCN1c1cc(C2(S(C)(=N)=O)CC2)nc(-c2ccnc3[nH]ccc23)n1 (stereo not given) + Nc1ccc(C#CCN(C(=O)Cc2ncc(C(F)(F)F)cc2C(F)(F)F)c2ccc(F)cc2)nn1
IC50 (second compound 0.0316 µM): 5.2 µM
IC50 (second compound 0.1 µM): 4.68 µM
IC50 (second compound 0.316 µM): 5.47 µM
IC50 (second compound 1 µM): 4.85 µM
IC50 (second compound 3.16 µM): 3.93 µM
IC50 (second compound 10 µM): 5.63 µM
viability, T/C [1]: 111%
viability, T/C [2]: 108%
viability, T/C [3]: 93.2%
viability, T/C [4]: 82.3%
viability, T/C [5]: 71%
viability, T/C [6]: 28.3%
viability, T/C [7]: 111%
viability, T/C [8]: 110%
viability, T/C [9]: 97.4%
viability, T/C [10]: 77.9%
viability, T/C [11]: 63.6%
viability, T/C [12]: 28.9%
viability, T/C [13]: 99.4%
viability, T/C [14]: 104%
viability, T/C [15]: 91.9%
viability, T/C [16]: 84.3%
viability, T/C [17]: 65.9%
viability, T/C [18]: 32.8%
viability, T/C [19]: 103%
viability, T/C [20]: 106%
viability, T/C [21]: 90.4%
viability, T/C [22]: 80%
viability, T/C [23]: 64.4%
viability, T/C [24]: 28.9%
viability, T/C [25]: 100%
viability, T/C [26]: 98.9%
viability, T/C [27]: 99.5%
viability, T/C [28]: 92.6%
viability, T/C [29]: 54.7%
viability, T/C [30]: 29.7%
viability, T/C [31]: 98.5%
viability, T/C [32]: 90.6%
viability, T/C [33]: 87.9%
viability, T/C [34]: 90.9%
viability, T/C [35]: 70.2%
viability, T/C [36]: 29.8%

Nc1ccn(C2OC(CO)C(O)C2(F)F)c(=O)n1 (stereo not given) + COC1C(OC(N)=O)C(O)C(Oc2ccc3c(O)c(NC(=O)c4ccc(O)c(CC=C(C)C)c4)c(=O)oc3c2C)OC1(C)C
IC50 (second compound 0.0316 µM): 1.01 µM
IC50 (second compound 0.1 µM): 1.6 µM
IC50 (second compound 0.316 µM): 0.47 µM
IC50 (second compound 1 µM): 0.924 µM
IC50 (second compound 3.16 µM): 0.874 µM
IC50 (second compound 10 µM): 0.463 µM
viability, T/C [1]: 81.7%
viability, T/C [2]: 70.2%
viability, T/C [3]: 49.4%
viability, T/C [4]: 59.7%
viability, T/C [5]: 41.4%
viability, T/C [6]: 26.2%
viability, T/C [7]: 86.2%
viability, T/C [8]: 67.3%
viability, T/C [9]: 61.6%
viability, T/C [10]: 55%
viability, T/C [11]: 50.3%
viability, T/C [12]: 26.3%
viability, T/C [13]: 75.8%
viability, T/C [14]: 61.4%
viability, T/C [15]: 47%
viability, T/C [16]: 52.4%
viability, T/C [17]: 36.8%
viability, T/C [18]: 33.1%
viability, T/C [19]: 81.3%
viability, T/C [20]: 70.7%
viability, T/C [21]: 56.6%
viability, T/C [22]: 45.6%
viability, T/C [23]: 48.7%
viability, T/C [24]: 28.2%
viability, T/C [25]: 79%
viability, T/C [26]: 62.8%
viability, T/C [27]: 55.8%
viability, T/C [28]: 51.4%
viability, T/C [29]: 45.7%
viability, T/C [30]: 25%
viability, T/C [31]: 83.3%
viability, T/C [32]: 73.8%
viability, T/C [33]: 41.7%
viability, T/C [34]: 46.9%
viability, T/C [35]: 47.1%
viability, T/C [36]: 28.2%

CC1COCCN1c1cc(C2(S(C)(=N)=O)CC2)nc(-c2ccnc3[nH]ccc23)n1 (stereo not given) + COC1C(OC(N)=O)C(O)C(Oc2ccc3c(O)c(NC(=O)c4ccc(O)c(CC=C(C)C)c4)c(=O)oc3c2C)OC1(C)C
IC50 (second compound 0.0316 µM): 5.67 µM
IC50 (second compound 0.1 µM): 7.87 µM
IC50 (second compound 0.316 µM): 6.15 µM
IC50 (second compound 1 µM): 5.99 µM
IC50 (second compound 3.16 µM): 5.86 µM
IC50 (second compound 10 µM): 5.68 µM
viability, T/C [1]: 119%
viability, T/C [2]: 99.4%
viability, T/C [3]: 110%
viability, T/C [4]: 88.1%
viability, T/C [5]: 64.9%
viability, T/C [6]: 35.5%
viability, T/C [7]: 96%
viability, T/C [8]: 107%
viability, T/C [9]: 109%
viability, T/C [10]: 82.7%
viability, T/C [11]: 71%
viability, T/C [12]: 44.5%
viability, T/C [13]: 107%
viability, T/C [14]: 98%
viability, T/C [15]: 115%
viability, T/C [16]: 83.1%
viability, T/C [17]: 77.2%
viability, T/C [18]: 31.9%
viability, T/C [19]: 121%
viability, T/C [20]: 101%
viability, T/C [21]: 94%
viability, T/C [22]: 84.4%
viability, T/C [23]: 77.2%
viability, T/C [24]: 31.8%
viability, T/C [25]: 93.1%
viability, T/C [26]: 106%
viability, T/C [27]: 114%
viability, T/C [28]: 99.3%
viability, T/C [29]: 70.4%
viability, T/C [30]: 32.4%
viability, T/C [31]: 97.6%
viability, T/C [32]: 91.4%
viability, T/C [33]: 100%
viability, T/C [34]: 89.2%
viability, T/C [35]: 71.1%
viability, T/C [36]: 29.8%

CNCc1ccc(-c2[nH]c3cc(F)cc4c3c2CCNC4=O)cc1 + Cc1cccc(N(C)C(=O)C2C(O)CCN2c2nc(C)cc(C(F)(F)F)c2C#N)c1
IC50 (second compound 0.0316 µM): > 10 µM
IC50 (second compound 0.1 µM): > 10 µM
IC50 (second compound 0.316 µM): > 10 µM
IC50 (second compound 1 µM): > 10 µM
IC50 (second compound 3.16 µM): > 10 µM
IC50 (second compound 10 µM): > 10 µM
viability, T/C [1]: 69.2%
viability, T/C [2]: 112%
viability, T/C [3]: 100%
viability, T/C [4]: 93.8%
viability, T/C [5]: 89.9%
viability, T/C [6]: 82%
viability, T/C [7]: 103%
viability, T/C [8]: 97.9%
viability, T/C [9]: 85.5%
viability, T/C [10]: 80.1%
viability, T/C [11]: 75.6%
viability, T/C [12]: 74.7%
viability, T/C [13]: 104%
viability, T/C [14]: 92.7%
viability, T/C [15]: 84.5%
viability, T/C [16]: 89.7%
viability, T/C [17]: 100%
viability, T/C [18]: 81%
viability, T/C [19]: 91.3%
viability, T/C [20]: 89.6%
viability, T/C [21]: 89.7%
viability, T/C [22]: 89%
viability, T/C [23]: 81%
viability, T/C [24]: 79.1%
viability, T/C [25]: 97.8%
viability, T/C [26]: 92.8%
viability, T/C [27]: 85.1%
viability, T/C [28]: 87.9%
viability, T/C [29]: 98.5%
viability, T/C [30]: 69.7%
viability, T/C [31]: 88.8%
viability, T/C [32]: 87.7%
viability, T/C [33]: 96.2%
viability, T/C [34]: 87.2%
viability, T/C [35]: 75.4%
viability, T/C [36]: 71.7%
